These results are taken from publication PMC8955975, “Pyrazolo[4,3-c]pyridine Sulfonamides as Carbonic Anhydrase Inhibitors: Synthesis, Biological and In Silico Studies” (Pharmaceuticals, 2022).

“And” between values parts separate entries of the source, which are not always exact repeats. Identical values can stand only once.

One series has as its target hCA II (Homo sapiens, UniProt P00918). As to the kind of experiment: stopped-flow CO2 hydrase assay, hCA II. The series is classed as biochemical. The note with it: for Ki: stopped-flow CO2 hydrase assay, mean from 3 different assays, read-out: KI hCAII; for selectivity index (SI) toward hCA I / selectivity index (SI) towards hCA IX / selectivity index (SI) towards hCA XII: hCA II inhibitor; for selectivity index (SI) toward hCA I: hCA II versus hCA I; for selectivity index (SI) towards hCA IX: hCA II versus hCA IX; for selectivity index (SI) towards hCA XII: hCA II versus hCA XII.

In the next series the target is hCA IX (Homo sapiens, UniProt Q16790). As to the kind of experiment: stopped-flow CO2 hydrase assay, hCA IX. The note with it: for selectivity index (SI) for hCA I: hCA IX inhibitor, hCA IX versus hCA I; for Ki: stopped-flow CO2 hydrase assay, mean from 3 different assays. Type of series: biochemical.
For another series, the target named is hCA I (Homo sapiens, UniProt P00915). As to the kind of experiment: stopped-flow CO2 hydrase assay, hCA I. The note with it: for Ki: stopped-flow CO2 hydrase assay, mean from 3 different assays. The series is classed as biochemical.
hCA I, sequence (P00915 whole entry): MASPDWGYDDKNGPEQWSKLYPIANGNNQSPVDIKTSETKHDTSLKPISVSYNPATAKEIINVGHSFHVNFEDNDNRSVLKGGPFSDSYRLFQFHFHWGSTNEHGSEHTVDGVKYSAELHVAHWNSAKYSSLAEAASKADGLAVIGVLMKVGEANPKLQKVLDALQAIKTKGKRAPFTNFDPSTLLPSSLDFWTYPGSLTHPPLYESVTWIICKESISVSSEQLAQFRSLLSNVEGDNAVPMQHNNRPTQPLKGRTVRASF
The target in a further series is hCA XII (Homo sapiens, UniProt O43570). Put plainly: stopped-flow CO2 hydrase assay, hCA XII. The series is classed as biochemical. The note with it: for Ki: stopped-flow CO2 hydrase assay, mean from 3 different assays.
hCA XII, sequence (O43570 25-354): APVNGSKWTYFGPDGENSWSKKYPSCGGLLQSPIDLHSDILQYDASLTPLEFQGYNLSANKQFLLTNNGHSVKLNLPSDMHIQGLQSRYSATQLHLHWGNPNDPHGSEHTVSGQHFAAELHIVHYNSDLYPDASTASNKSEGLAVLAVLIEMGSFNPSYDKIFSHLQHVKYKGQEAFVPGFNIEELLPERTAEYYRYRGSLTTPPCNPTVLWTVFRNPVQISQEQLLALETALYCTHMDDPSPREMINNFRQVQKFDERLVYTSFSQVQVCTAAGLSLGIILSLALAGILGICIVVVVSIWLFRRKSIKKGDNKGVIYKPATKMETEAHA
The next series concerns the target β-CA from E. coli (Escherichia coli, UniProt P61517). As to the kind of experiment: stopped-flow CO2 hydrase assay, E. coli β-CA. The series is classed as biochemical.
Series [1] has as its target γ-CA from Porphyromonas gingivalis (PgiCAγ) (Porphyromonas gingivalis, UniProt Q7MV79). The series is classed as biochemical. As to conditions: for Ki: stopped-flow CO2 hydrase assay, mean from 3 different assays.
Series [2] addresses β-CA from Vibrio cholerae (VhCAβ) (Vibrio cholerae, UniProt A0A086SLX8). As to the kind of experiment: biochemical.
For series [3], the target named is β-CA from Burkholderia pseudomallei (BpsCAβ) (Burkholderia pseudomallei, UniProt Q63Y17). Type of series: biochemical. As to conditions: for Ki: read-out: KI BpsCAβ.
β-CA from Burkholderia pseudomallei (BpsCAβ), sequence (Q63Y17 1-256): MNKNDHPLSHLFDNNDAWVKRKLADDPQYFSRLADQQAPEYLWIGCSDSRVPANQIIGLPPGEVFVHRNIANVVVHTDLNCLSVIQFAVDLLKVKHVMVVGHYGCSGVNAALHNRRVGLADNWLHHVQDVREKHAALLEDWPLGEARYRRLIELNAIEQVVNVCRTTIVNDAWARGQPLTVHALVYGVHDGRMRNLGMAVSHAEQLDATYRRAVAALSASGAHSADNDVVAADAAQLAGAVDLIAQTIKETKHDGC
Another series deals with BpsCAγ (Burkholderia pseudomallei, UniProt Q63SQ4). The series is classed as biochemical. As to conditions: read-out: KI BpsCAγ.
BpsCAγ, sequence (Q63SQ4 1-174): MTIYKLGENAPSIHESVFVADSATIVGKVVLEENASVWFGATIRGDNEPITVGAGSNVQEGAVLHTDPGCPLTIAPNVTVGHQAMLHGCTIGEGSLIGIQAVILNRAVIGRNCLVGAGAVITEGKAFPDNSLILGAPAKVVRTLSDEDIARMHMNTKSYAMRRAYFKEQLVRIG
The target of the next series is γ-CA from E. coli (Escherichia coli, UniProt P0A9W9). The series is classed as biochemical. As to conditions: for Ki: stopped-flow CO2 hydrase assay, mean from 3 different assays; for selectivity index (SI) against BpsCAβ: E. coli γ versus BpsCAβ; for selectivity index (SI) against BpsCAγ: E. coli γ versus BpsCAγ; for selectivity index (SI) against E. coli β: E. coli γ versus E. coli β; for selectivity index (SI) against PgiCAγ: E. coli γ versus PgiCAγ.
γ-CA from E. coli, sequence (P0A9W9 whole entry): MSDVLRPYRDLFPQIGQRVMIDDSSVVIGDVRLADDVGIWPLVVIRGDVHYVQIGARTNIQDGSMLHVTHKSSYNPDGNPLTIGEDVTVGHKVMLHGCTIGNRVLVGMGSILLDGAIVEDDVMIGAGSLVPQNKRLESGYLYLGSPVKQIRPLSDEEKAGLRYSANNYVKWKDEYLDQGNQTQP

γ-CA from Porphyromonas gingivalis (PgiCAγ), sequence (Q7MV79 entry or part of it): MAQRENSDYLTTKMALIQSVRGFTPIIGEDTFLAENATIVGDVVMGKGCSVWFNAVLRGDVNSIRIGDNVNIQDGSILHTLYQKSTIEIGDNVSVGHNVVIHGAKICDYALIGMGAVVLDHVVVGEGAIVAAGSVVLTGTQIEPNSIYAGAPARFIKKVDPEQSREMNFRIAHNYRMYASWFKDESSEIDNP
β-CA from E. coli, sequence (P61517 whole entry): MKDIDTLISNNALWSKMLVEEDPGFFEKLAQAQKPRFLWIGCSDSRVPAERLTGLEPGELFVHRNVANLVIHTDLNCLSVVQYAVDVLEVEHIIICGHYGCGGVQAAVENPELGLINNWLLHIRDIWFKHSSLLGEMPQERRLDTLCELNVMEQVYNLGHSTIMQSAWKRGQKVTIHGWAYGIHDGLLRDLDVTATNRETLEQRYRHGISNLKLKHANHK
β-CA from Vibrio cholerae (VhCAβ), sequence (A0A086SLX8 entry or part of it): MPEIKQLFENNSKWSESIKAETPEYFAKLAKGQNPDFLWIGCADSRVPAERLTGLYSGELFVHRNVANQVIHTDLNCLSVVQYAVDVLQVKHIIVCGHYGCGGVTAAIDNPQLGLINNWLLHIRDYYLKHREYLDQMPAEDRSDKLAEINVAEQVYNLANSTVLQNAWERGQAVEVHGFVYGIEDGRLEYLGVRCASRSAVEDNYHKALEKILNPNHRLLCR

For orientation: Ki means the dissociation constant of the complex between target and ligand, obtained from inhibition or displacement. The term melting point denotes the temperature, or range, at which the solid turns liquid. On to `COC(=O)c1cn(CCS(N)(=O)=O)cc2c(=O)[nH]nc1-2` [Compound 1a, Methyl 3-oxo-5-(2-sulfamoylethyl)-3,5-dihydro-2H-pyrazolo[4,3-c]pyridine-7-carboxylate], for which the melting point was greater than 300 °C. Also, the inhibition constant (Ki) at hCA II came out at 7330 nM. At hCA IX, the “selectivity index (SI) for hCA I” value was determined as 81.8 and affinity was put at a Ki of 97.9 nM. Besides, the affinity at hCA I, expressed as Ki, was 8010 nM. At hCA XII, this compound showed an inhibitory constant (Ki) of 282 nM. In addition, affinity at β-CA from E. coli was put at a Ki of 862 nM. Further, the inhibition constant (Ki) in [1] turned out to be 783 nM. For the same compound, the inhibition constant Ki in series [2] came to 2330 nM. In [3], the Ki came out at 654 nM. On BpsCAγ, the Ki was 913 nM. Besides, the Ki at γ-CA from E. coli came to 61.8 nM.

The compound `COC(=O)c1cn(-c2ccc(S(N)(=O)=O)cc2)cc2c(=O)[nH]nc1-2` [Compound 1b, Methyl 3-oxo-5-(4-sulfamoylphenyl)-3,5-dihydro-2H-pyrazolo[4,3-c]pyridine-7-carboxylate] showed a melting point greater than 300 °C. For the same compound, at hCA II, the inhibitory constant (Ki) is 51.4 nM. Moreover, the Ki at hCA IX was 319 nM. The “decreased activity against hCA I” value at hCA I (compared with 1f) is on record as ~ 2.7 times. Also, the Ki on hCA I is 157 nM. The compound also had an inhibition constant Ki at hCA XII of 358 nM. Further, on β-CA from E. coli, the Ki came to 3460 nM. In [1], this compound yielded a Ki of 91 nM. Besides, the inhibitory constant (Ki) in series [2] was 844 nM. Also, the inhibition constant Ki in series [3] was 229 nM. Moreover, the inhibitory constant (Ki) at BpsCAγ is 513 nM. On γ-CA from E. coli (E. coli γ-CA inhibitor), the “selectivity index (SI) against BpsCAβ” value amounted to 3.96; the “selectivity index (SI) against BpsCAγ” value is given as 8.88; the “selectivity index (SI) against E. coli β” value is listed as 59.8; the “selectivity index (SI) against PgiCAγ” value is 1.59 and 1.57 and 1.5. At γ-CA from E. coli (E. coli γ-CA inhibitor, E. coli γ versus VhCAβ), the “selectivity index (SI) against VhCAβ” value was 14.6. The compound also showed an inhibition constant Ki at γ-CA from E. coli of 57.8 nM.

Turning to `COC(=O)c1cn(-c2cccc(S(N)(=O)=O)c2)cc2c(=O)[nH]nc1-2` [Compound 1c, Methyl 3-oxo-5-(3-sulfamoylphenyl)-3,5-dihydro-2H-pyrazolo[4,3-c]pyridine-7-carboxylate], the melting point is greater than 300 °C. Besides, the inhibition constant (Ki) on hCA II came out at 247 nM. The inhibitory constant (Ki) at hCA IX was 590 nM. On hCA I, this compound displayed a Ki of 1440 nM. This compound came in with a Ki on hCA XII of 143 nM. Moreover, the Ki on β-CA from E. coli amounted to 3840 nM. The compound also displayed an inhibition constant (Ki) in series [1] of 637 nM. In series [2], the inhibition constant Ki is 913 nM. In addition, the Ki in series [3] is 785 nM. Further, at BpsCAγ, the Ki amounted to 614 nM. At γ-CA from E. coli, this compound came in with an inhibition constant Ki of 79.1 nM.

Take `COC(=O)C1=CN(Cc2ccc(S(N)(=O)=O)cc2)C=C2C(=O)N=NC21` (stereo not drawn) [Compound 1d, 3-oxo-5-(4-sulfamoylbenzyl)-3,5-dihydro-2H-pyrazolo[4,3-c]pyridine-7-carboxylate]: the melting point was greater than 300 °C.

`COC(=O)c1cn(CCc2ccc(S(N)(=O)=O)cc2)cc2c(=O)[nH]nc1-2` [Compound 1e, Methyl 3-oxo-5-(4-sulfamoylphenethyl)-3,5-dihydro-2H-pyrazolo[4,3-c]pyridine-7-carboxylate]: the melting point is greater than 300 °C. Further, the inhibitory constant (Ki) at hCA II is 658 nM. The affinity at hCA IX, expressed as Ki, was 849 nM. Also, the inhibition constant Ki at hCA I turned out to be 864 nM. Further, the affinity on hCA XII, expressed as Ki, was 397 nM. Moreover, the affinity on β-CA from E. coli, expressed as Ki, was 3140 nM. This compound also gave an inhibitory constant (Ki) in series [1] of 96.1 nM. Besides, in [2], the affinity, expressed as Ki, was 840 nM. Further, in [3], the Ki stood at 683 nM. In addition, at BpsCAγ, the inhibition constant (Ki) came to 1340 nM. Further, at γ-CA from E. coli (E. coli γ-CA inhibitor), the “selectivity index (SI) against BpsCAβ” value is 3.96, the “selectivity index (SI) against BpsCAγ” value came to 8.88, the “selectivity index (SI) against E. coli β” value worked out at 59.8 and the “selectivity index (SI) against PgiCAγ” value was 1.59. The compound also yielded an inhibition constant Ki on γ-CA from E. coli of 58.1 nM.

Consider `COC(=O)c1cn(CC(=O)Nc2ccc(S(N)(=O)=O)cc2)cc2c(=O)[nH]nc1-2` [Compound 1f], for which the melting point is greater than 300 °C. For the same compound, at hCA II, the “selectivity index (SI) toward hCA I” value is 9, the “selectivity index (SI) towards hCA IX” value is reported as 137.5, the “selectivity index (SI) towards hCA XII” value is 71.9 and the inhibition constant Ki worked out at 6.6 nM. Also, the inhibition constant (Ki) on hCA IX was 907 nM. The same compound yielded an inhibition constant (Ki) at hCA I of 58.8 nM. Also, the Ki at hCA XII was 475 nM. On β-CA from E. coli, this compound registered an inhibition constant Ki of 3650 nM. For the same compound, the affinity in series [1] corresponds to a Ki of 668 nM. In [2], this compound had an inhibitory constant (Ki) of 467 nM. Further, the inhibitory constant (Ki) in series [3] was 236 nM. Further, the Ki at BpsCAγ was 2180 nM. In addition, at γ-CA from E. coli, the inhibitory constant (Ki) came out at 66.8 nM.

On to `CC(=O)N1CC(Nc2ccc(S(N)(=O)=O)cc2)=CC1=O` [Compound 1g, 4-((1-Acetyl-5-oxo-2,5-dihydro-1H-pyrrol-3-yl)amino)benzenesulfonamide], for which the melting point is 285 to 287 °C. Further, the Ki on hCA II stood at 41.7 nM. At hCA IX, this compound displayed a Ki of 294 nM. On hCA I, this compound registered an inhibitory constant (Ki) of 66.8 nM. Further, affinity on hCA XII was put at a Ki of 509 nM. At β-CA from E. coli, the inhibition constant Ki is 454 nM. In [1] (PgiCAγ inhibitor, PgiCAγ versus VhCAβ), the “selectivity index (SI) towards VhCAβ” value is 17.4. The inhibition constant Ki in series [1] came out at 83.1 nM. In series [2], this compound came in with a Ki of 1450 nM. In addition, the inhibitory constant (Ki) in series [3] was 664 nM. For the same compound, on BpsCAγ, the Ki came out at 97.1 nM. At γ-CA from E. coli, this compound gave an inhibition constant Ki of 205 nM.

On to `CC(=O)N1CC(Nc2cccc(S(N)(=O)=O)c2)=CC1=O` [Compound 1h, 3-((1-Acetyl-5-oxo-2,5-dihydro-1H-pyrrol-3-yl)amino)benzenesulfonamide], for which the Ki on hCA II was 61.7 nM; at hCA IX, 94.3 nM; on hCA I, 136 nM; at hCA XII, 714 nM; on β-CA from E. coli, 712 nM; in [1], 90 nM. In addition, the inhibition constant Ki amounted to 2620 nM in series [2], 2960 nM in series [3], 833 nM at BpsCAγ and 524 nM on γ-CA from E. coli.

In the case of `Cc1cc(O)cc(=O)n1CCS(N)(=O)=O` [Compound 1i, 2-(4-hydroxy-6-methyl-2-oxopyridin-1(2H)-yl)ethane-1-sulfonamide], the melting point was 243 to 245 °C. The Ki on hCA II came out at 6790 nM. At hCA IX, the “selectivity index (SI) for hCA I” value was found to be 74.9 and affinity was put at a Ki of 79.6 nM. The compound further gave a Ki on hCA I of 5440 nM. The same compound showed a Ki on hCA XII of 105 nM. On β-CA from E. coli, this compound displayed an inhibition constant Ki of 3050 nM. The inhibitory constant (Ki) in series [1] stood at 95.6 nM. In [2], this compound came in with a Ki of 2240 nM. For the same compound, in series [3], the “selectivity index (SI) against VhCAβ” value is listed as 23.2, the “selectivity index (SI) against the β-CA from E. coli” value was 31.6 and the Ki was found to be 96.4 nM. On BpsCAγ, the inhibitory constant (Ki) turned out to be 192 nM. The affinity at γ-CA from E. coli, expressed as Ki, was 92.7 nM.

Turning to `NS(=O)(=O)CCNC=C1C(=O)Oc2ccccc2C1=O` [Compound 1j, 2-(((2,4-dioxochroman-3-ylidene)methyl)amino)ethane-1-sulfonamide], the melting point lay within 197 to 199 °C. For the same compound, the Ki on hCA II was 5710 nM. The same compound gave a Ki at hCA IX of 97.8 nM. At hCA I, this compound showed a Ki of 3860 nM. This compound also had a Ki at hCA XII of 285 nM. Further, the Ki on β-CA from E. coli stood at 94.9 nM. The compound also displayed a Ki in series [1] of 84.3 nM. In series [2], this compound had a Ki of 642 nM. Moreover, in series [3], the Ki came out at 789 nM. Besides, the Ki on BpsCAγ is 625 nM. At γ-CA from E. coli, this compound displayed a Ki of 67.1 nM.

`CC12CC(c3ccccc3O1)C(C(N)=O)C(=O)N2CCc1ccc(S(N)(=O)=O)cc1` (stereo not drawn) [Compound 1k, 2-methyl-4-oxo-3-(4-sulfamoylphenethyl)-3,4,5,6-tetrahydro-2H-2,6-methanobenzo[g][1,3]oxazocine-5-carboxamide] displayed a melting point of 225 to 227 °C. On hCA II, the “selectivity index (SI) toward hCA I” value was 15.8, the “selectivity index (SI) towards hCA IX” value is on record as 75.25, the “selectivity index (SI) towards hCA XII” value is reported as 6 and the Ki turned out to be 5.6 nM. The compound further had a Ki on hCA IX of 421 nM. In addition, the inhibition constant (Ki) at hCA I was 88.3 nM. Moreover, the “selectivity index (SI) towards hCA IX” value at hCA XII (hCA XII inhibitor, hCA XII versus hCA IX) is given as 12.2. The affinity at hCA XII, expressed as Ki, was 34.5 nM. Affinity at β-CA from E. coli was put at a Ki of 3860 nM. The compound also had a Ki in [1] of 202 nM. Further, in [2], the inhibition constant (Ki) came to 356 nM. The inhibitory constant (Ki) in series [3] turned out to be 212 nM. In addition, the Ki at BpsCAγ was 952 nM. This compound also gave a Ki on γ-CA from E. coli of 63.5 nM.
